These results are taken from ChEMBL document CHEMBL1128983, “Synthesis and biological activity of novel sialyl-lewisX conjugates” (Bioorg Med Chem Lett, 1996).

Molecules are shown by their SMILES.

For the assay, the target named is T1, E-selectin (Homo sapiens, UniProt P16581).
T1 sequence (P16581 whole entry): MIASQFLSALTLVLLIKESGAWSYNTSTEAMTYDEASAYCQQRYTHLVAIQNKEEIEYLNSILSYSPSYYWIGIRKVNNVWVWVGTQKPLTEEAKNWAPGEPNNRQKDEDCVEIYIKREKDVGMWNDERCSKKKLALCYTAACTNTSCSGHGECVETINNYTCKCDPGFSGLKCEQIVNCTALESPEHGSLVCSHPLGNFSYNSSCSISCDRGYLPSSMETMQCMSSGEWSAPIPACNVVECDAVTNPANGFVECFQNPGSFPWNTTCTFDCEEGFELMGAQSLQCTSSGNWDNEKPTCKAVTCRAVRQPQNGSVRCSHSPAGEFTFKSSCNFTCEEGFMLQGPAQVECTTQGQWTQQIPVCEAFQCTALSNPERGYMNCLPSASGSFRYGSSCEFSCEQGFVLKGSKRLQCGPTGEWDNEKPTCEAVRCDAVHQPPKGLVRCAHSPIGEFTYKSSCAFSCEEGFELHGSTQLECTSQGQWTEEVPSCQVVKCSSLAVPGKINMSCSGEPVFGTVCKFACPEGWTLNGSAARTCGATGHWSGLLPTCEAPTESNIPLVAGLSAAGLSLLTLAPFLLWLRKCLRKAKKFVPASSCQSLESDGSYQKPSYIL
As to the kind of experiment: Compound was tested for inhibition of HL60 cell adhesion to recombinant Selectin E IgG fusion protein obtained from transfected COS cells. The class given is functional, cell-based, HL-60.
As a reminder, the IC50 is the concentration that inhibits the measured activity by half. `CC(=O)N[C@H]1[C@H]([C@H](O)[C@H](O)CO)O[C@@](O[C@@H]2[C@H](O)[C@H](O[C@H]3[C@H](O[C@@H]4O[C@@H](C)[C@@H](O)[C@H](O)[C@@H]4O)[C@H](NC(C)=O)[C@H](NC(=O)[C@H](C)NC(=O)[C@H](CC(=O)O)NC(=O)CNC(=O)[C@@H](N)CCCN=C(N)N)O[C@H]3CO)O[C@@H](CO)[C@@H]2O)(C(=O)O)C[C@H]1O`: the 50% inhibitory concentration (IC50) was over 1 mM.
With `CC(=O)N[C@@H]1[C@H](OCCCCCCN)O[C@@H](CO)[C@@H](O[C@@H]2O[C@@H](CO)[C@H](O)[C@H](O[C@]3(C(=O)O)C[C@@H](O)[C@@H](NC(C)=O)[C@H]([C@H](O)[C@H](O)CO)O3)[C@@H]2O)[C@@H]1O[C@@H]1O[C@@H](C)[C@@H](O)[C@H](O)[C@@H]1O`, the IC50 was 1 mM.
In the case of `CC(=O)N[C@@H]1[C@H](OCCCCCC/N=C(S)/N=C2\C=CC(=C3c4ccc(O)cc4Oc4cc(O)ccc43)C(C(=O)O)=C2)O[C@@H](CO)[C@@H](O[C@@H]2O[C@@H](CO)[C@H](O)[C@H](O[C@]3(C(=O)O)C[C@@H](O)[C@@H](NC(C)=O)[C@H]([C@H](O)[C@H](O)CO)O3)[C@@H]2O)[C@@H]1O[C@@H]1O[C@@H](C)[C@@H](O)[C@H](O)[C@@H]1O`, the IC50 is 0.65 mM.
As for `CC(=O)N[C@@H]1[C@H](OCCCCCCNC(=O)CCC(=O)O)O[C@@H](CO)[C@@H](O[C@@H]2O[C@@H](CO)[C@H](O)[C@H](O[C@]3(C(=O)O)C[C@@H](O)[C@@H](NC(C)=O)[C@H]([C@H](O)[C@H](O)CO)O3)[C@@H]2O)[C@@H]1O[C@@H]1O[C@@H](C)[C@@H](O)[C@H](O)[C@@H]1O`, the IC50 stood at 1.15 mM.
As to `CC(=O)N[C@H]1[C@H]([C@H](O)[C@H](O)CO)O[C@@](O[C@@H]2[C@H](O)[C@H](O[C@H]3[C@H](O[C@@H]4O[C@@H](C)[C@@H](O)[C@H](O)[C@@H]4O)[C@H](NC(C)=O)[C@H](NC(=O)[C@H](C)NC(=O)[C@@H]4CCCN4C(=O)CNC(=O)CNC(=O)[C@@H]4CCCN4C(=O)CN)O[C@H]3CO)O[C@@H](CO)[C@@H]2O)(C(=O)O)C[C@H]1O`, the half-maximal inhibitory concentration (IC50) turned out to be 5 mM.
On to `CC(=O)N[C@@H]1[C@H](OCCCCCCNC(=O)CCCC[C@@H]2SC[C@@H]3NC(=O)N[C@@H]32)O[C@@H](CO)[C@@H](O[C@@H]2O[C@@H](CO)[C@H](O)[C@H](O[C@]3(C(=O)O)C[C@@H](O)[C@@H](NC(C)=O)[C@H]([C@H](O)[C@H](O)CO)O3)[C@@H]2O)[C@@H]1O[C@@H]1O[C@@H](C)[C@@H](O)[C@H](O)[C@@H]1O`, for which the IC50 was determined as 0.59 mM.
The figure for `CC(=O)N[C@@H]1[C@H](OCCCCCCNC(=O)[C@H]2CC[C@H](CN3C(=O)C=CC3=O)CC2)O[C@@H](CO)[C@@H](O[C@@H]2O[C@@H](CO)[C@H](O)[C@H](O[C@]3(C(=O)O)C[C@@H](O)[C@@H](NC(C)=O)[C@H]([C@H](O)[C@H](O)CO)O3)[C@@H]2O)[C@@H]1O[C@@H]1O[C@@H](C)[C@@H](O)[C@H](O)[C@@H]1O` is 0.28 mM.
